Test results: ChEMBL document CHEMBL4680201, “Design, synthesis, and pharmacological evaluation of 4- or 6-phenyl-pyrimidine derivatives as novel and selective Janus kinase 3 inhibitors” (Eur J Med Chem, 2020)
The source made the active and inactive calls. The rule behind the calls is not given here.

Assays:
[1] = biological target: Tyrosine-protein kinase JAK1 (Homo sapiens, UniProt P23458); test: Inhibition of recombinant human GST-tagged JAK1 cytoplasmic domain (866 to 1154 residues) expressed in baculovirus expression system using TK-substrate-biotin preincubated for 5 mins followed by substrate addition and measured after 30 mins by HTRF assay
[2] = biological target: Tyrosine-protein kinase JAK2 (Homo sapiens, UniProt O60674); type: ADME
[3] = biological target: T1, Tyrosine-protein kinase JAK3 (Homo sapiens, UniProt P52333)
T1 sequence (P52333 whole entry): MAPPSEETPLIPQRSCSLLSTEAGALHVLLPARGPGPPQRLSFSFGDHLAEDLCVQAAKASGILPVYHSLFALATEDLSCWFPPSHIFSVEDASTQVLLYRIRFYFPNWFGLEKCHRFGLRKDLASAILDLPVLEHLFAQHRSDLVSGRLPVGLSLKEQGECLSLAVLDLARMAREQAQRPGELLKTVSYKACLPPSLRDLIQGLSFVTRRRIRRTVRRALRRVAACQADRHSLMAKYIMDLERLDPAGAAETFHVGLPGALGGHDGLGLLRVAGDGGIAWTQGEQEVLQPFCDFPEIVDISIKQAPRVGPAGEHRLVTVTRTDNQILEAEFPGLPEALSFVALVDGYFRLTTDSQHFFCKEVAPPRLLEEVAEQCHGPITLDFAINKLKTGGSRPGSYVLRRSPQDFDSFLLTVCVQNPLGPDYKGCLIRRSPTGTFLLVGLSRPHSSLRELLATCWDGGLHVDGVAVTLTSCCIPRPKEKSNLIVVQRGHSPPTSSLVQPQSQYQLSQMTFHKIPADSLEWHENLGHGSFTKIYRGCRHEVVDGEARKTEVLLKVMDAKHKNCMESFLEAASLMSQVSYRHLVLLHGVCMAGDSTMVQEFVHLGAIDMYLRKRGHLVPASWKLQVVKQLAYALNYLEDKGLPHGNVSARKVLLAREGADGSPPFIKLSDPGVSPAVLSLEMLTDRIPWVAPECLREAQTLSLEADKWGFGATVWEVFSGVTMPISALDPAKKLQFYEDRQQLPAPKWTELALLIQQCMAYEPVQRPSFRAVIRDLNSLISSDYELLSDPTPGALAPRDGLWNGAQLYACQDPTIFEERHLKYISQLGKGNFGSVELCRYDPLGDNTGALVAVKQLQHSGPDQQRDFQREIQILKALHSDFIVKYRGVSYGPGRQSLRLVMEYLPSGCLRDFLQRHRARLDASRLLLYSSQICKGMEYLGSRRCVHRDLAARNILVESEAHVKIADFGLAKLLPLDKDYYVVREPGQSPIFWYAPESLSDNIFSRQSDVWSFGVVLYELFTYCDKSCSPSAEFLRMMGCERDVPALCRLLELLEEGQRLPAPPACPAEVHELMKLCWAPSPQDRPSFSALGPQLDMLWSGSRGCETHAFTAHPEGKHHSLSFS

[4] = biological target: Non-receptor tyrosine-protein kinase TYK2 (Homo sapiens, UniProt P29597); test: Inhibition of recombinant human N-terminal GST-tagged TYK2 cytoplasmic domain (833 to 1187 residues) expressed in baculovirus expression system using TK-substrate-biotin preincubated for 5 mins followed by substrate addition and measured after 30 mins by HTRF assay
[5] = biological target: T2, Tyrosine-protein kinase JAK3 (Mus musculus) (UniProt Q62137); test: Inhibition of JAK3 in anti-CD3/-CD28 coated mouse T cells assessed as reduction in IL2-induced STAT5 phosphorylation at 10 uM preincubated for 1 hr followed by IL2 stimulation and measured after 30 mins by Western blot analysis; conditions: T cell
T2 sequence (whole entry): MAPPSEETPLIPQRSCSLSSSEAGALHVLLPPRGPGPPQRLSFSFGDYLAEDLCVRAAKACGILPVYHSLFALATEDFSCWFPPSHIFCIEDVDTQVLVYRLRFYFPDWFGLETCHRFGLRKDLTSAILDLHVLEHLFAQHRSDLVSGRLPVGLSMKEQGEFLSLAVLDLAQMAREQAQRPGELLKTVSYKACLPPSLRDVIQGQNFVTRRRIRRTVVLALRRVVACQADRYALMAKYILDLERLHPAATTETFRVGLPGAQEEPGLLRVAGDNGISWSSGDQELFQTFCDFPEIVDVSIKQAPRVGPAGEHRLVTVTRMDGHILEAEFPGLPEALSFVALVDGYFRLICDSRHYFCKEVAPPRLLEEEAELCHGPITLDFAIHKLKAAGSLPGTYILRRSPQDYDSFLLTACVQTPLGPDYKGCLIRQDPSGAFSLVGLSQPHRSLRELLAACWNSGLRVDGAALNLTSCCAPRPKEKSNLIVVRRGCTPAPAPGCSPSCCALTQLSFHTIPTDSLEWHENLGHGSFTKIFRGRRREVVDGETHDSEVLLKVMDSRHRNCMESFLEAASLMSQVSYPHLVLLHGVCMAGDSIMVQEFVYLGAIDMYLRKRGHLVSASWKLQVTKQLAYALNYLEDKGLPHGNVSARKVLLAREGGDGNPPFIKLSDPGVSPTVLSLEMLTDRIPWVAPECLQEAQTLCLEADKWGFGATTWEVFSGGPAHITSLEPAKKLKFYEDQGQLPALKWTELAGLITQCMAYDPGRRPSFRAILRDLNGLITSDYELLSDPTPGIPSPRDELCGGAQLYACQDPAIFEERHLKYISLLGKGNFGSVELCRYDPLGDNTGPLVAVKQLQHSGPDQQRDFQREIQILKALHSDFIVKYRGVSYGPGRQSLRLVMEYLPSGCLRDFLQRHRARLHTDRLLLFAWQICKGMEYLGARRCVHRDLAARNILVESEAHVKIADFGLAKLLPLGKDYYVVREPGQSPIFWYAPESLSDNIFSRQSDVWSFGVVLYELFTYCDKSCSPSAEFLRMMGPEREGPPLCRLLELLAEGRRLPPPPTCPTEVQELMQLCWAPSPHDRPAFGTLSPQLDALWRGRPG

[6] = Cytotoxicity against resting mouse T cells assessed as reduction in cell viability at 10 uM measured after 72 hrs by MTS assay; type: cell-based
[7] = Cytotoxicity against IL-4-treated mouse T cells assessed as reduction in cell viability at 10 uM measured after 72 hrs by MTS assay; type: cell-based
[8] = test system: RAW264.7; test: Cytotoxicity against mouse RAW264.7 cells assessed as reduction in cell viability at 10 uM measured after 72 hrs by MTS assay; type: cell-based; conditions: raw264.7, 72 h
[9] = biological target: T2, Tyrosine-protein kinase JAK3 (Mus musculus); test: Inhibition of JAK3 in anti-CD3/-CD28 coated mouse T cells assessed as reduction in IL15-induced STAT5 phosphorylation at 10 uM preincubated for 1 hr followed by […] and measured after 30 mins by Western blot analysis; conditions: T cell

Tyrosine-protein kinase JAK1, sequence (P23458 whole entry, the tested form may be a part): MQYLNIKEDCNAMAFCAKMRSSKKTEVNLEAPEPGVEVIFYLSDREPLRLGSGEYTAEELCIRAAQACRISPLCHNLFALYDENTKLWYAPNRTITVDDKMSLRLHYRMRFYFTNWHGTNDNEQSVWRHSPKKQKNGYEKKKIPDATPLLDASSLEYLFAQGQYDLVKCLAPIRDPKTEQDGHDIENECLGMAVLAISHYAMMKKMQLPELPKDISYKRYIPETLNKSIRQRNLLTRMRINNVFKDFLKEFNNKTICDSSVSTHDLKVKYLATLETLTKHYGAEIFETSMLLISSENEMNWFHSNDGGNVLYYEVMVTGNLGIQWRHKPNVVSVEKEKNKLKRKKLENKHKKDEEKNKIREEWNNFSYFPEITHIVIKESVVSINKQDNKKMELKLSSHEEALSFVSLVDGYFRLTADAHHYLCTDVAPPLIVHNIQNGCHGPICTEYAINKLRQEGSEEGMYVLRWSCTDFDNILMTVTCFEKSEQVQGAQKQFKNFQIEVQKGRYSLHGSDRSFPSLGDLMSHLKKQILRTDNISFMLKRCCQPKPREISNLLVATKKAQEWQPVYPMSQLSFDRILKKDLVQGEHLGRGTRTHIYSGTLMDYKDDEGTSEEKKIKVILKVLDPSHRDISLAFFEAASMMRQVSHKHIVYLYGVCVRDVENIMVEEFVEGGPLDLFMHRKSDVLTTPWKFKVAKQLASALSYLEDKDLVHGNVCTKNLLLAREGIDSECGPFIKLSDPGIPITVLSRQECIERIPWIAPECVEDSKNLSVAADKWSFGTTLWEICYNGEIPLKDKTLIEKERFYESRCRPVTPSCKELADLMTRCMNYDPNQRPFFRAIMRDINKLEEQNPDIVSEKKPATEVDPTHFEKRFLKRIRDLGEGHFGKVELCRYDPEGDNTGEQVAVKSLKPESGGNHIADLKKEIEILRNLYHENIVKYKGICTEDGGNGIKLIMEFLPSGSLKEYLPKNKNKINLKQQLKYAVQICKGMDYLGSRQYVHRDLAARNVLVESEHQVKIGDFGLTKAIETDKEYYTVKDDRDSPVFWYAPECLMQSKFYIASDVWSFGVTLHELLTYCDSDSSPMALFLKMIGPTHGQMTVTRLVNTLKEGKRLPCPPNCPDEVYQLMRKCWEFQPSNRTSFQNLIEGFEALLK
Tyrosine-protein kinase JAK2, sequence (O60674 whole entry): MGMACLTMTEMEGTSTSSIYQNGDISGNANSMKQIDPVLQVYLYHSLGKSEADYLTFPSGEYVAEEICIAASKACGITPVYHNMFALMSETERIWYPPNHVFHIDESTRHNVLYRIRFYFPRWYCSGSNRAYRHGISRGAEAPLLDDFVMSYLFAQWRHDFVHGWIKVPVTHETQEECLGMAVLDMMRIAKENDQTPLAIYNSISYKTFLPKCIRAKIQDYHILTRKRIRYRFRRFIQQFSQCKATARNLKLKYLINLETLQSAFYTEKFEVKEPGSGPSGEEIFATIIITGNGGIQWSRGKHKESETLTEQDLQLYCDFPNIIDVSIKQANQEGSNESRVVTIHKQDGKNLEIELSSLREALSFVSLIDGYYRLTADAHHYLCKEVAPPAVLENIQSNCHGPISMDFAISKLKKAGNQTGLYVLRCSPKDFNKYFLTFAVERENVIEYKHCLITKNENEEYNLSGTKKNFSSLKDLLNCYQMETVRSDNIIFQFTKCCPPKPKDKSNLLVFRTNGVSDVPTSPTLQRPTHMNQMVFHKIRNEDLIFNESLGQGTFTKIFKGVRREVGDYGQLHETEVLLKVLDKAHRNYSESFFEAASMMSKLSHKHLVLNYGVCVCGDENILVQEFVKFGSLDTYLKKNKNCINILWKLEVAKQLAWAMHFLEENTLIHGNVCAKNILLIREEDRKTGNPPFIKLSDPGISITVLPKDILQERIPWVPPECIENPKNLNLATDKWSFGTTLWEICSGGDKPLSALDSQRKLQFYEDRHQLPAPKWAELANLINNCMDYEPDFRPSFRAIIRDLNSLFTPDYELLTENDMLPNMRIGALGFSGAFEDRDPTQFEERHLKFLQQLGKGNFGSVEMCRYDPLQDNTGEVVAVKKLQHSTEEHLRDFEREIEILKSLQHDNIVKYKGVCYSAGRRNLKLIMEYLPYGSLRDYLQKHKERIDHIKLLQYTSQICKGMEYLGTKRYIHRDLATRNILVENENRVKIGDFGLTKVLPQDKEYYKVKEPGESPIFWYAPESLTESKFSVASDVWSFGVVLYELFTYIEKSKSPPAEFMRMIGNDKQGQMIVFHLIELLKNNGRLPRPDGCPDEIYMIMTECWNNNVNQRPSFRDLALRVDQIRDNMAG
Non-receptor tyrosine-protein kinase TYK2, sequence (P29597 whole entry, the tested form may be a part): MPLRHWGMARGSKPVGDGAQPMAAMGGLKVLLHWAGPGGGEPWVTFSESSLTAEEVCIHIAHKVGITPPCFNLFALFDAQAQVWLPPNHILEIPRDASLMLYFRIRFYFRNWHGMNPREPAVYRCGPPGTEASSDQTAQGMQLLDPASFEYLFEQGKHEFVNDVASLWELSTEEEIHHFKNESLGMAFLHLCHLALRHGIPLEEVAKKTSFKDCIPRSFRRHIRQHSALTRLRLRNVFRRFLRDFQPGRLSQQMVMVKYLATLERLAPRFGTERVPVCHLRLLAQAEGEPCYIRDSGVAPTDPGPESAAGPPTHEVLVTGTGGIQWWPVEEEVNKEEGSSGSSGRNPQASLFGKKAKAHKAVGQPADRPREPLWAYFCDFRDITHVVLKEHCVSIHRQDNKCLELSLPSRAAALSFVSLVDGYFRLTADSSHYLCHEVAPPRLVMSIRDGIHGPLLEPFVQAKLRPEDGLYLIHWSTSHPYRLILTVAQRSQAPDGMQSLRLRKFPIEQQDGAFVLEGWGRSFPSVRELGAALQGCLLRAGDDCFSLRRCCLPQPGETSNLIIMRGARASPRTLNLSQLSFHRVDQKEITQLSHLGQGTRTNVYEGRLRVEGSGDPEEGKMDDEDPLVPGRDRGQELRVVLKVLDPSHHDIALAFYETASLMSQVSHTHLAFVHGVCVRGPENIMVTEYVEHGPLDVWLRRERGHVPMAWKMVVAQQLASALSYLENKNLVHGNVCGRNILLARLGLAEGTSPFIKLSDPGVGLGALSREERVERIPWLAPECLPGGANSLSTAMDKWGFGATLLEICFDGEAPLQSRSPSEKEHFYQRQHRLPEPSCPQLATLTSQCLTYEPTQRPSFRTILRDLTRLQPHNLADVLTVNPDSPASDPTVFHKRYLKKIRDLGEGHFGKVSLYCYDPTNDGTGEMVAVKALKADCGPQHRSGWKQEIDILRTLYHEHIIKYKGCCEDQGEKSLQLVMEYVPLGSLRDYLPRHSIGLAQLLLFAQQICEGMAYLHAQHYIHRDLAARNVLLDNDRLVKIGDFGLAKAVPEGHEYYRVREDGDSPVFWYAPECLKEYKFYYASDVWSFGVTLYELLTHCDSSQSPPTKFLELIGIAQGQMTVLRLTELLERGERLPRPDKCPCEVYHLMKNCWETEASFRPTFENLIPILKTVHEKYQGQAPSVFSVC

C=CC(=O)Nc1cccc(-c2cc(Nc3cnn(CCOC)c3)ncn2)c1
IC50 [1]: 568 nM
IC50 [2]: 2850 nM
IC50 [3]: 101 nM

C=CC(=O)NCC(=O)Nc1cccc(-c2cc(Nc3ccc(N4CCOCC4)cc3)ncn2)c1
IC50 [1]: 354 nM
IC50 [2]: > 3000 nM
IC50 [3]: 103 nM

C/C=C/C(=O)NCC(=O)Nc1cccc(-c2cc(Nc3ccc(N4CCOCC4)cc3)ncn2)c1
IC50 [1]: 586 nM
IC50 [3]: 375 nM

N#CCC(=O)Nc1ccc(-c2ccnc(Nc3ccc(N4CCOCC4)cc3)n2)cc1
IC50 [1]: 433 nM
IC50 [4]: > 3000 nM

N#CCC(=O)NCC(=O)Nc1cccc(-c2cc(Nc3ccc(N4CCOCC4)cc3)ncn2)c1
IC50 [1]: 1430 nM
IC50 [2]: 309 nM
IC50 [3]: 253 nM

Cn1cc(Nc2cc(-c3cccc(NC(=O)CNC(=O)CC#N)c3)ncn2)cn1
IC50 [1]: 89 nM
IC50 [2]: 69 nM
IC50 [3]: 95 nM

C=CC(=O)Nc1cccc(-c2ccnc(Nc3cnn(CCOC)c3)n2)c1
IC50 [1]: 1100 nM
IC50 [2]: 1290 nM
IC50 [4]: 2870 nM
IC50 [3]: 55 nM

C/C=C/C(=O)Nc1ccc(-c2cc(Nc3cnn(CCOC)c3)ncn2)cc1
IC50 [1]: 2760 nM
IC50 [3]: 76 nM

C=CC(=O)Nc1ccc(-c2cc(Nc3cnn(CCOC)c3)ncn2)cc1
IC50 [1]: 1660 nM
IC50 [2]: > 3000 nM
IC50 [4]: > 3000 nM
IC50 [3]: 67 nM

N#CCC(=O)Nc1ccc(-c2cc(Nc3ccc(N4CCOCC4)cc3)ncn2)cc1
IC50 [1]: 528 nM
IC50 [3]: 78 nM

CNC(=O)Cn1cc(Nc2cc(-c3cccc(NC(=O)CNC(=O)CC#N)c3)ncn2)cn1
IC50 [1]: > 3000 nM
IC50 [2]: 2730 nM
IC50 [3]: 127 nM

C=CC(=O)Nc1cccc(-c2cc(Nc3cnn(CCN(C)C)c3)ncn2)c1
IC50 [1]: 731 nM
IC50 [2]: > 3000 nM
IC50 [3]: 309 nM

C=CC(=O)Nc1ccc(-c2cc(Nc3ccc(N4CCOCC4)cc3)ncn2)cc1
IC50 [1]: 961 nM
IC50 [2]: 1570 nM
IC50 [3]: 112 nM

C=CC(=O)Nc1cccc(-c2ccnc(Nc3ccc(N4CCOCC4)cc3)n2)c1
IC50 [1]: 2120 nM
IC50 [2]: 1800 nM
IC50 [4]: 2440 nM
IC50 [3]: 30 nM

C/C=C/C(=O)NCC(=O)Nc1cccc(-c2cc(Nc3cnn(CCOC)c3)ncn2)c1
IC50 [1]: 45 nM
IC50 [2]: 886 nM
IC50 [3]: 108 nM

C=CC(=O)Nc1cccc(-c2cc(Nc3cnn(CCO)c3)ncn2)c1
IC50 [2]: 2590 nM
IC50 [3]: 599 nM

C/C=C/C(=O)Nc1cccc(-c2cc(Nc3cnn(CCN(C)C)c3)ncn2)c1
IC50 [1]: 899 nM
IC50 [2]: 1890 nM
IC50 [3]: 67 nM

C/C=C/C(=O)Nc1cccc(-c2cc(Nc3cnn(CC(=O)NC)c3)ncn2)c1
IC50 [2]: 1110 nM
IC50 [3]: 92 nM

C=CC(=O)NCC(=O)Nc1cccc(-c2cc(Nc3cnn(CCOC)c3)ncn2)c1
IC50 [1]: 56 nM
IC50 [2]: 1540 nM
IC50 [3]: 66 nM

C=CC(=O)Nc1cccc(-c2cc(Nc3cnn(CC(=O)NC)c3)ncn2)c1
IC50 [1]: 840 nM
IC50 [3]: 138 nM

C=CC(=O)Nc1cccc(-c2cc(Nc3ccc(N4CCOCC4)cc3)ncn2)c1
IC50 [1]: 1110 nM
IC50 [2]: 2040 nM
IC50 [3]: 183 nM

C/C=C/C(=O)Nc1ccc(-c2ccnc(Nc3cnn(CCOC)c3)n2)cc1
IC50 [1]: 1440 nM
IC50 [2]: 1980 nM
IC50 [4]: > 3000 nM
IC50 [3]: 14 nM

COCCn1cc(Nc2cc(-c3cccc(NC(=O)CC#N)c3)ncn2)cn1
IC50 [1]: 322 nM
IC50 [2]: 587 nM
IC50 [4]: 2260 nM
IC50 [3]: 65 nM

C/C=C/C(=O)Nc1ccc(-c2cc(Nc3ccc(N4CCOCC4)cc3)ncn2)cc1
IC50 [1]: 321 nM
IC50 [2]: 2150 nM
IC50 [3]: 99 nM

C/C=C/C(=O)Nc1cccc(-c2cc(Nc3cnn(CCO)c3)ncn2)c1
IC50 [1]: 2440 nM
IC50 [2]: 2810 nM
IC50 [3]: 221 nM

N#CCC(=O)Nc1cccc(-c2cc(Nc3ccc(N4CCOCC4)cc3)ncn2)c1
IC50 [1]: 1860 nM
IC50 [2]: 734 nM
IC50 [3]: 170 nM

C=CC(=O)Nc1cccc(-c2cc(Nc3cnn(C)c3)ncn2)c1
IC50 [1]: 657 nM
IC50 [2]: 2240 nM
IC50 [3]: 303 nM

C/C=C/C(=O)Nc1ccc(-c2ccnc(Nc3ccc(N4CCOCC4)cc3)n2)cc1
inhibition [5]: Active
Activity [6]: Non-Toxic
IC50 [1]: 1150 nM
Activity [7]: Non-Toxic
Activity [8]: Non-Toxic
IC50 [2]: 1410 nM
inhibition [9]: Active
IC50 [4]: > 3000 nM
IC50 [3]: 6.1 nM

C/C=C/C(=O)Nc1cccc(-c2cc(Nc3cnn(C)c3)ncn2)c1
IC50 [1]: 1520 nM
IC50 [2]: 2760 nM
IC50 [3]: 567 nM

Cn1cc(Nc2cc(-c3cccc(NC(=O)CC#N)c3)ncn2)cn1
IC50 [1]: 854 nM
IC50 [3]: 145 nM

C/C=C/C(=O)Nc1cccc(-c2ccnc(Nc3ccc(N4CCOCC4)cc3)n2)c1
IC50 [2]: 2790 nM
IC50 [4]: 2650 nM
IC50 [3]: 33 nM

N#CCC(=O)Nc1cccc(-c2ccnc(Nc3ccc(N4CCOCC4)cc3)n2)c1
IC50 [1]: 2230 nM
IC50 [2]: 216 nM
IC50 [4]: > 3000 nM
IC50 [3]: 152 nM

COCCn1cc(Nc2nccc(-c3ccc(NC(=O)CC#N)cc3)n2)cn1
IC50 [1]: 183 nM
IC50 [4]: 2500 nM
IC50 [3]: 24 nM

COCCn1cc(Nc2cc(-c3ccc(NC(=O)CC#N)cc3)ncn2)cn1
IC50 [1]: 2680 nM
IC50 [2]: 1460 nM
IC50 [4]: 1870 nM
IC50 [3]: 86 nM

C/C=C/C(=O)Nc1cccc(-c2cc(Nc3cnn(CCOC)c3)ncn2)c1
IC50 [1]: 1290 nM
IC50 [2]: 2580 nM
IC50 [4]: > 3000 nM
IC50 [3]: 29 nM

C/C=C/C(=O)Nc1cccc(-c2cc(Nc3ccc(N4CCOCC4)cc3)ncn2)c1
IC50 [1]: 2880 nM
IC50 [2]: 2130 nM
IC50 [4]: > 3000 nM

N#CCC(=O)Nc1cccc(-c2cc(Nc3cnn(CCO)c3)ncn2)c1
IC50 [1]: 1540 nM
IC50 [2]: 1140 nM
IC50 [3]: 243 nM
